From patent US20230129745A1, “COMPOUNDS, COMPOSITIONS, AND METHODS TO TREAT METABOLIC DISEASE” (Board of Supervisors of Louisiana State University and …, priority 2020, published 2023)

Tests used:
3T3-L1 adipocytes [1] = conditions: published data; cited from earlier work
PPARγ = target: T1, PPARγ (Homo sapiens, UniProt P37231); conditions: Choi et al. 2011; cited from earlier work
T1 construct: NIH-3T3 cells stably transfected with full-length PPARγ (A); expressed in transfected cells
T1 sequence (P37231 1-505): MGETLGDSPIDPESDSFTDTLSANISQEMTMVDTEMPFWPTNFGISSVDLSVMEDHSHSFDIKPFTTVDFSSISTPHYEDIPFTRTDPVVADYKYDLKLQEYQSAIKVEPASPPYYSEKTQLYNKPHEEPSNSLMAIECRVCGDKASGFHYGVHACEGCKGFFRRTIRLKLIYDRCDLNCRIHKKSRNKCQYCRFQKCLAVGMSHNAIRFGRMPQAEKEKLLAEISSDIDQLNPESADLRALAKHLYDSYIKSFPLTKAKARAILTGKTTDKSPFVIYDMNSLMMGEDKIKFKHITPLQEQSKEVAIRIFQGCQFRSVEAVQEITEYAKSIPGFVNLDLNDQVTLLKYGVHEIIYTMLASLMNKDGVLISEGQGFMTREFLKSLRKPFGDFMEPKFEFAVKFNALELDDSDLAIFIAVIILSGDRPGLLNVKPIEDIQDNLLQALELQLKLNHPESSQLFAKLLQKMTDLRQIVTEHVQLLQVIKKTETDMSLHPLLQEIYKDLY

3T3-L1 cells = test: Lipid accumulation (Oil Red O) in differentiating 3T3-L1 cells; type: cell-based, murine; conditions: for dose dependence of lipid accumulation activity / lipid accumulation (Oil Red O staining): 2.5, 10, and 25 μM; for lipid accumulation (Oil Red O staining): relative to DMSO; for adipogenesis (Oil Red O and AdipoQ, Fabp4, Pparγ expression): 2.5, 10, or 25 μM, half-strength MDI, FIG. 27
Description: Cells were then either fixed and stained with Oil Red O (4 days post-differentiation) (panel A), or harvested (3 days post differentiation) for RNA isolation and gene expression analysis of adiponectin (AdipoQ), fatty acid binding protein 4 (Fabp4), or Ppary (panels B-D). All treatments compared to their respective DMSO controls. The Effects of SCO and ROSI were analyzed by t-test, while the effects of individual test compounds were analyzed by one-way ANOVA. *[…], **P<0.01, ***P<0.001, ****P<0.0001 vs DMSO controls.
Cell Culture and Treatments. 3T3-L1 preadipocytes (murine) were cultured as previously described,^3 and induced to differentiate two days after reaching confluence. For experiments using mature adipocytes, cells were induced with a standard methylxanthine-dexamethasone-insulin (MDI) cocktail, which contains 0.5 mM isobutylmethylxanthine (IBMX), 1 μM dexamethasone (DEX), and 1.72 μM insulin in high-glucose Dulbecco's Modified Eagle Medium (DMEM) supplemented with 10% fetal bovine serum (FBS). IBMX, DEX, insulin, and DMEM were obtained from Sigma-Aldrich (St. Louis, Mo.), and FBS from Hyclone (GE Healthcare Life Sciences, Logan, Utah). For differentiation experiments, cells were induced with half-strength MDI cocktail […]. In both cases, cells were fed with high-glucose DMEM+10% FBS with 0.43 μM insulin three days following MDI induction. Test compounds were dissolved in dimethylsulfoxide (DMSO) as 1000× stocks. For differentiation experiments, cells were treated with the compounds (or DMSO vehicle as a control) at the time of induction and at the first feeding there after (3 days post-MDI). For lipolysis experiments on mature adipocytes, cells were fed with high-glucose DMEM+10% FBS 6 days after MDI and treated with test compounds or DMSO vehicle for three days. On the third day cells were also treated overnight with 0.75 nM tumor necrosis factor alpha (TNFα) (Life Technologies, Carlsbad, Calif.) or its vehicle [0.1% bovine serum albumin (BSA) in phosphate buffered saline (PBS)]. The following morning, the culture medium was replaced with lipolysis incubation medium (low-glucose DMEM+2% BSA) and 0.75 nM TNFα(or vehicle). After 4 hours, conditioned medium and cell lysates were collected.
Lipid Accumulation Assay. Five days after MDI induction, cell monolayers were fixed in 10% neutral buffered formalin (ThermoFisher, Waltham, Mass.) and stained with the neutral lipid stain, Oil Red O (ORO). Plates were scanned to generate images of staining. The ORO was then eluted in isopropyl alcohol, and absorbance of eluates was measured at 520 nm for quantitation.

3T3-L1 adipocytes [2] = test: TNFα-induced lipolysis (glycerol release) in 3T3-L1 adipocytes; type: cell-based, murine; conditions: 2.5, 10, or 25 μM, 3-day pretreatment; 0.75 nM TNFα
Description: Fully differentiated 3T3-L1 adipocytes pretreated for three days with 50 μg/ml SCO or varying doses of test compounds (2.5, 10, or 25 μM), then overnight with 0.75 nM TFNα (or vehicle). After 4 hours, the conditioned medium was collected and assayed for glycerol. Data was expressed as fold-change vs TNFα-only treatment. Data from no-TNFα controls and each test compound were analyzed by one-way ANOVA. **P<0.01, ****P<0.0001 vs TNFα-only condition.
Cell Culture and Treatments. 3T3-L1 preadipocytes (murine) were cultured as previously described,^3 and induced to differentiate two days after reaching confluence. For experiments using mature adipocytes, cells were induced with a standard methylxanthine-dexamethasone-insulin (MDI) cocktail, which contains 0.5 mM isobutylmethylxanthine (IBMX), 1 μM dexamethasone (DEX), and 1.72 μM insulin in high-glucose Dulbecco's Modified Eagle Medium (DMEM) supplemented with 10% fetal bovine serum (FBS). IBMX, DEX, insulin, and DMEM were obtained from Sigma-Aldrich (St. Louis, Mo.), and FBS from Hyclone (GE Healthcare Life Sciences, Logan, Utah). […]
FABP4 secretion and lipolysis assays. […] Conditioned media samples were collected after four hours and analyzed for FAPB4 content by immunoblotting. Lipolysis was also assessed by measuring glycerol concentrations in the samples, using free glycerol reagent from Sigma-Aldrich.

[3] = LC-MS of serum from mice fed HFD containing 1% Artemisia scoparia extract; type: in vivo; conditions: archived serum, SCO feeding study in high fat-fed mice, after 4-hour fast
Description: Serum samples of control or SCO-treated mice were analyzed directly without enzyme hydrolysis after protein precipitation (top 2 panels) or after glucuronidase enzyme digestion followed by solvent partitioning (lower 2 panels). Chromatograms were created using selected ion monitoring of m/z 315.159-315.161 specific to capillartemisins. In addition to specific mass, the identity of capillartemisin A was confirmed using our in-house library of spectral data that was confirmed using NMR spectroscopy.
To conduct in vivo assessments of SP's bioavailability or pharmacokinetics, we sent six-year-old archived serum samples from our last SCO feeding study in high fat-fed mice for analysis. These samples were collected at the time of sacrifice after a 4-hour fast, in conditions that were not designed for detection of SCO compounds in the circulation. […] However, capillartemisin A was detected (FIG. 12).

caspase 1 = target: T2, caspase 1 (Mus musculus, UniProt P29452); conditions: literature; cited from earlier work
T2 sequence (P29452 119-402): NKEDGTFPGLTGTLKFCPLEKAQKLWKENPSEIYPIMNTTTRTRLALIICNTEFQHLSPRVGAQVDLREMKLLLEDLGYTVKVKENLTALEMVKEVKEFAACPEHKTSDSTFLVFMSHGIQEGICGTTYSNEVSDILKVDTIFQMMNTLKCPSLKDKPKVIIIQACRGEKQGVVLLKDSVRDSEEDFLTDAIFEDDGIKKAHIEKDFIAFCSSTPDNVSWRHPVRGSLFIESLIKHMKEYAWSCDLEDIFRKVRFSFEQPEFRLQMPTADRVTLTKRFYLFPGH

[4] = 14 days of treatment, db/db mice; cited from earlier work

| SMILES | adipogenesis / adipocyte differentiation (3T3-L1 adipocytes [1]) | dose dependence of lipid accumulation activity (3T3-L1 cells) | lipid accumulation (Oil Red O staining) (3T3-L1 cells) | adipogenesis (Oil Red O and AdipoQ, Fabp4, Pparγ expression) (3T3-L1 cells) | inhibition of TNFα-induced lipolysis (glycerol release) (3T3-L1 adipocytes [2]) | detection in serum (LC-MS) [3] | also measured |
| --- | --- | --- | --- | --- | --- | --- | --- |
| CC(C)=CCc1cc(/C=C/C(=O)O)cc(CC=C(C)C)c1O [Artepillin C] | enhance adipogenesis |  |  |  |  |  | PPARγ activation (PPARγ): activate |
| CC(C)=CCc1cc(/C=C/C(=O)O)cc(C/C=C(\C)CO)c1O [Compound 2, capillartemisin A] |  | active in a dose-dependent manner | enhanced lipid accumulation | promote adipogenesis | not able to significantly mitigate | detected |  |
| CC(C)=CCc1cc(/C=C/C(=O)O)cc(C/C=C(/C)CO)c1O [Compound 3, capillartemisin B] |  | best activity over the tested dose range | enhanced lipid accumulation | promote adipogenesis | not able to significantly mitigate | did not detect |  |
| O=C(/C=C/c1ccc(O)c(O)c1)O[C@@H]1CC(O)(C(=O)O)C[C@@H](OC(=O)/C=C/c2ccc(O)c(O)c2)C1O (stereo partly drawn) [DEQA, 3,5-dicaffeoyl-epi-quinic acid] | do not promote adipogenesis |  |  |  |  |  | caspase 1 activity (caspase 1): reduce |
| CN(CCOc1ccc(CC2SC(=O)NC2=O)cc1)c1ccccn1 (stereo not drawn) [rosiglitazone] |  |  |  |  |  |  | hematocrit [4]: decreases hematocrit by as much as three percentage points |
